Test results reported in US11655216B2 (priority 2016, dated 2023).
Where two headings read alike, the source gives them in different places.

Legend:
[1] = target: T1, glutathione-S-transferase (GST) tagged LXRalpha LBD (ligand binding domain) (Homo sapiens, UniProt Q13133); assay: biochemical; settings: for LXR alpha actiivty at max dose: efficacy (% Emax) in relation to reference dual agonist T0901317
T1 construct: purchased Invitrogen pv4655
T1 sequence (Q13133 209-447 limits assumed): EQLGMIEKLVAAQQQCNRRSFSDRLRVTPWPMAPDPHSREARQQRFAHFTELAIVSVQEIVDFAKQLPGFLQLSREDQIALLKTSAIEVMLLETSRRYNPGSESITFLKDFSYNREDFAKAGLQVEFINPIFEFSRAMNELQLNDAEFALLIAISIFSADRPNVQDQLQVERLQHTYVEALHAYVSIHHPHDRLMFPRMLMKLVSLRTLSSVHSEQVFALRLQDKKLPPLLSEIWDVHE
Description: (§1) While running the LanthaScreen™ TR-FRET Liver X Receptor Coactivator Assay, LXR alpha-LBD or LXR beta-LBD was added to ligand test compounds followed by addition of a mixture of a fluorescein-labelled coactivator peptide and terbium-conjugated anti-GST antibody. After an incubation period at room temperature, TR-FRET (time-resolved fluorescence resonance energy transfer) was measured using a filter-based instrument capable of TR-FRET, e.g. PerkinElmer Envision.

[2] = target: T2, glutathione-S-transferase (GST) tagged LXRbeta LBD (ligand binding domain) (Homo sapiens, UniProt P55055); assay: LanthaScreen TR-FRET Liver X Receptor Coactivator Assay, LXR beta; format: biochemical; settings: for LXR beta actiivty at max dose: efficacy (% Emax) in relation to reference dual agonist T0901317; for EC50: potency (Inflection Point), compound-induced co-activator recruitment, TR-FRET; for Emax: read-out: LXR beta actiivty at max dose, efficacy (% Emax) in relation to reference dual agonist T0901317
T2 construct: purchased Invitrogen pv4658
T2 sequence (P55055 222-460 limits assumed): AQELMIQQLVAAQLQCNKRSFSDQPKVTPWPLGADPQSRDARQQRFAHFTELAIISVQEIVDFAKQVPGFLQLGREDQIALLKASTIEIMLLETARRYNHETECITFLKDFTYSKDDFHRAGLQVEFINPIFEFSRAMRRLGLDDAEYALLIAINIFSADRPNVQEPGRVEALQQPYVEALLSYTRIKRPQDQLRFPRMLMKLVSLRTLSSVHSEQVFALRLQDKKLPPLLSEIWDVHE
Description: as §1

[3] = LXR alpha IP, potency (Inflection Point), compound-induced co-activator recruitment, TR-FRET
[4] = read-out: LXR alpha actiivty at max dose, efficacy (% Emax) in relation to reference dual agonist T0901317

EC50 [1, 3]	Emax [1, 4]	Compound	LXR beta actiivty at max dose [2]	EC50 ([2]; LXR beta IP)	Emax [2]	further results
–	–	4-(2-((1S,2R or 1R, 2S)- 2-(1-((R or S)-2-amino- 3,3,3-trifluoro-2- phenylpropanoyl) piperidin-4- yl)cyclopropyl)ethoxy)-2- chloro-N- methylbenzamide [Example 10-4]	147%	–	–	LXR alpha actiivty at max dose [1]: 83%; EC50 ([1]; potency (Inflection Point), compound-induced co-activator recruitment, TR-FRET, read-out: LXR alpha IP): 586 nM; EC50 ([2]; read-out: LXR beta IP): 8 nM
–	–	COc1cccc(C(O)(C(=O)N2CCC3(CCC(Oc4ccc(C(=O)N(C)C)c(Cl)c4)CC3)CC2)C(F)(F)F)c1 (single isomer, unassigned) [Example 1-1, 2-chloro-N,N-dimethyl-4-(3-((R or S)-3,3,3-trifluoro-2-hydroxy-2-(3-methoxyphenyl)propanoyl)-3-azaspiro[5.5]undecan-9-yloxy)benzamide]	–	25 nM	51%	EC50 ([1]; LXR alpha IP): 663 nM; Emax ([1]; read-out: LXR alpha actiivty at max dose): 22%
1880 nM	35%	COc1cccc(C(O)(C(=O)N2CCC3(CCC(Oc4ccc(C(=O)N(C)C)c(Cl)n4)CC3)CC2)C(F)(F)F)c1 (single isomer, unassigned) [Example 1-2, 2-chloro-N,N-dimethyl-6-(3-((S or R)-3,3,3-trifluoro-2-hydroxy-2-(3-methoxyphenyl)propanoyl)-3-azaspiro[5.5]undecan-9-yloxy)nicotinamide]	120%	92 nM	–	–
1160 nM	–	COc1cccc(C(O)(C(=O)N2CCC3(CCC(Oc4ccc(C(=O)N(C)C)c(Cl)n4)CC3)CC2)C(F)(F)F)c1 (single isomer, unassigned) [Example 1-3, 2-chloro-N,N-dimethyl-6-(3-((R or S)-3,3,3-trifluoro-2-hydroxy-2-(3-methoxyphenyl)propanoyl)-3-azaspiro[5.5]undecan-9-yloxy)nicotinamide]	84%	75 nM	–	LXR alpha actiivty at max dose [1]: 21%
–	0%	Cc1nc(OC2CCC3(CC2)CCN(C(=O)C(O)(c2cccc(OC4CC4)c2)C(F)(F)F)CC3)ccc1C(=O)N(C)C (single isomer, unassigned) [Example 2-1, 6-(3-((R or S)-2-(3-cyclopropoxyphenyl)-3,3,3-trifluoro-2-hydroxypropanoyl)-3-azaspiro[5.5]undecan-9-yloxy)-N,N,2-trimethylnicotinamide]	–	140 nM	46%	LXR alpha IP ([1]; potency (Inflection Point), compound-induced co-activator recruitment, TR-FRET): No IP
–	–	CN(C)C(=O)c1ccc(OCCCCC2CCN(C(=O)C(O)(c3ccccc3)C(F)(F)F)CC2)nc1Cl (single isomer, unassigned) [Example 3-16, (R or S)-2-chloro-N,N-dimethyl-6-(4-(1-(3,3,3-trifluoro-2-hydroxy-2-phenylpropanoyl)piperidin-4-yl)butoxy)nicotinamide]	–	259 nM	83%	–
–	–	CN(C)C(=O)c1ccc(OCCCCC2CCN(C(=O)C(O)(c3ccccc3)C(F)(F)F)CC2)nc1Cl (single isomer, unassigned) [Example 3-17, (S or R)-2-chloro-N,N-dimethyl-6-(4-(1-(3,3,3-trifluoro-2-hydroxy-2-phenylpropanoyl)piperidin-4-yl)butoxy)nicotinamide]	74%	8 nM	–	–
–	–	CCc1nc(OCCCCC2CCN(C(=O)C(O)(c3ccccc3)C(F)(F)F)CC2)ccc1C(=O)N(C)C (stereo not drawn) [Example 5-2, 2-ethyl-N,N-dimethyl-6-(4-(1-(3,3,3-trifluoro-2-hydroxy-2-phenylpropanoyl)piperidin-4-yl)butoxyl)nicotinamide]	–	63 nM	77%	–

Compound	EC50 [1, 3]	Emax [1, 4]	LXR beta actiivty at max dose [2]	EC50 ([2]; LXR beta IP)	Emax [2]	further results
CN(C)C(=O)c1ccc(OCCCCC2CCN(C(=O)C(O)(c3cccc(Cl)c3)C(F)(F)F)CC2)cc1Cl (single isomer, unassigned) [Example 3-2, (S or R)-2-chloro-4-(4-(1-(2-(3-chlorophenyl)-3,3,3-trifluoro-2-hydroxypropanoyl)piperidin-4-yl)butoxy)-N,N-dimethylbenzamide]	128 nM	37%	–	6 nM	79%	–
